Measurements as given in patent US20070099863A1, “Compounds for the treatment of demyelinating and autoimmune diseases” (priority 2003, published 2007).
Structures can show the parent of a compound that is named as a salt.

What was measured:
[1] = test system: P2X receptors in oligodendrocytes; test: Whole-cell patch-clamp recordings in cultured oligodendrocytes; format: cell-based, rat; details: for induction of input current by agonist: agonist 100 μM; for EC50: cultured oligodendrocytes, whole-cell patch-clamp, read-out: EC50 of amplitude of currents generated by agonist
Experimental: (§1) The cell cultures were carried out from the optic nerve of the perinatal rat (P12) following established protocols, which were adapted and introduced into the laboratory according to a recent description (Matute et al, 1997, Proc. Natl. Acad. Sci. USA 94, 8830-8835).
The electrophysiological recordings were carried out in 2 to 5 day cultures, and according to the guidelines indicated in previous works (Patneau et al 1994, Neuron 12: 357-371). The cells were recorded in a chamber which allowed the composition of the extracellular medium to vary by means of a constant flow (0.5-1 mL/min). The recording electrodes were glass capillaries which contained specific solutions compatible with the cytoplasm ion concentrations. The study of the responses mediated by the purinergic receptors was carried out using the “whole-cell patch-clamp” technique, measuring the currents generated by the external application of selective agonists and antagonists of the aforementioned receptors.

[2] = test system: oligodendrocytes; test: Oligodendroglial death in culture; format: cell-based, rat; details: for toxicity of purinergic agonists for oligodendrocytes: culture
Experimental: as §1, with “Death is calcium dependent, since its elimination from the culture media leads to it not being caused. […] The” for “The”

[3] = test system: optic nerve; test: Infusion of agonists over the optic nerve in vivo (osmotic pumps); design: species or system rabbit; details: infused 3 days by osmotic pumps, examined 7 days after start
Experimental: The experiments on the optic nerve were carried out in rabbits (New Zealand White) which, due to their size, enable better manipulation in experimental surgery. The procedure used was that described previously (Matute, 1998, Proc. Natl. Acad. Sci. 95, 10229-10234). The purinergic agonists were applied using osmotic micropumps which released small quantities of solute for a determined time. Later, the effect of this application on the nerve was evaluated by means of a panel of oligodendrocyte markers and their progenitors, myelin, axonal integrity, astrogliosis y microgliosis.
Next, the ATP-γ-S and BzATP agonists were infused over the optic nerve using osmotic pumps which released very small quantities of solute for 3 days. […] Also, this zone had intense gliosis, lack of myelin and axonal damage (FIG. 6).

[4] = test system: P2X receptors in oligodendrocytes; test: Cytosolic calcium levels (Fura-2) in oligodendrocyte cultures; format: cell-based, rat; details: for promotion of the increase of [Ca2+]i generated by ATP: propofol 60 μM
Experimental: as §1
The concentration of cytosol calcium was determined by the method of Grynkiewikcz et al (1985; J. Biol. Chem. 260, 3440-3450). The oligodendrocytes were loaded with […] of Fura-2/AM, and they were then washed and studied in a Zeiss inverted microscope equipped with a monochromator, 40× immersion objective, an Orca high resolution digital camera, and AquaCosmos software (Hamamatsu Photonics). The changes in cytosol calcium levels in response to agonists and antagonists, in the presence and absence of extracellular calcium, were studied. The calibration was performed at the end of the studies by means of the successive application of ionomycin and EGTA, and the calcium concentration was estimated using the measurement of the 340/380 nm ratio.

[5] = test system: oligodendrocytes of isolated optic nerve; test: Isolated optic nerve perfusion, oligodendrocyte damage in situ; design: species or system rat
Experimental: Next, they were incubated with purinergic agonists and antagonists for different times. Later, the nerves were perfused for 1 to 24 hours with normal aCSF saturated with oxygen. After this time passed the damage was evaluated histologically as we have described in vivo (Matute, 1998, Proc. Natl. Acad. Sci. USA 95: 10229-10234), and the biochemical changes which are underlying to this damage were analysed.
To determine if ATP is toxic to the oligodendrocytes in a preparation of nerve tissue without dissociating, entire optic nerves isolated from adult rats were perfused with artificial cerebrospinal fluid with ATP (100 μM) for 3 h. […] The damaged cells are located in the longitudinal axis of the nerve and make up part of interfascicular oligodendrocyte rows.

[6] = target: T1, P2X3 (Homo sapiens, UniProt P56373); details: P2X3 subtype; read-out: IC50 in relation to P2X3; cited from earlier work
T1 sequence (P56373 1-397): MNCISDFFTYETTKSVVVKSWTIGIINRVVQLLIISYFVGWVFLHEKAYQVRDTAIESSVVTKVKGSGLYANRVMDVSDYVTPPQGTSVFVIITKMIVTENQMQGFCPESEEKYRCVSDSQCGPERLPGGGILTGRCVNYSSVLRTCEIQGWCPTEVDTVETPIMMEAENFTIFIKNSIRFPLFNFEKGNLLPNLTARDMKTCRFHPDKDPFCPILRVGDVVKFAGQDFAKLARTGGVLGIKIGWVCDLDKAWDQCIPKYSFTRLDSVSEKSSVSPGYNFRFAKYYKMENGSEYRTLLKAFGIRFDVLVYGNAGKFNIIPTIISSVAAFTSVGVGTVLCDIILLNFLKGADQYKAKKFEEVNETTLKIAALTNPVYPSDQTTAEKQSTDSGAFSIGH

[7] = target: T2, P2X1 (Homo sapiens, UniProt P51575); details: P2X1 subtype; read-out: IC50 in relation to P2X1; cited from earlier work
T2 sequence (P51575 1-399): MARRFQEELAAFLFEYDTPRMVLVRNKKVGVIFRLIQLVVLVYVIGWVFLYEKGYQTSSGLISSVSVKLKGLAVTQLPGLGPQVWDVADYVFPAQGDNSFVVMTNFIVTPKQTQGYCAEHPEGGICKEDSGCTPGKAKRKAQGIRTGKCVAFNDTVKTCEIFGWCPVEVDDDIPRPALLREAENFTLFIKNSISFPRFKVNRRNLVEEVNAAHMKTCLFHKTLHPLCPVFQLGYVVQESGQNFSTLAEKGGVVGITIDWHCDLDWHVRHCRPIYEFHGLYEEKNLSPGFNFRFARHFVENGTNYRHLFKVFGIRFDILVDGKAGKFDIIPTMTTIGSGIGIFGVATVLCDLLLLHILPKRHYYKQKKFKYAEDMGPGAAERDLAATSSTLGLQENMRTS

[8] = target: T3, P2X4 (Homo sapiens, UniProt Q99571); details: P2X4 subtype; read-out: IC50 in relation to P2X4; cited from earlier work
T3 sequence (Q99571 1-388): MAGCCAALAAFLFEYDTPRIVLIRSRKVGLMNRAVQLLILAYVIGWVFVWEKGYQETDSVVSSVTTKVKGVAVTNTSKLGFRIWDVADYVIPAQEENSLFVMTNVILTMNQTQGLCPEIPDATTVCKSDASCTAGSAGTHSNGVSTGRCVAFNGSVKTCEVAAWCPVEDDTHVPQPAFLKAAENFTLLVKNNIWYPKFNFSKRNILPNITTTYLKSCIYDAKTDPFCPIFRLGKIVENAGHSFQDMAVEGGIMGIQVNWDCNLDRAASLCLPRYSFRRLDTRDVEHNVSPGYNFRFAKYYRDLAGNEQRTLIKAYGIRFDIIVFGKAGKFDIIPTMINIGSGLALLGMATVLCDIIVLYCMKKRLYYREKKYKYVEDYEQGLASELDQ

[9] = test system: EAE in Lewis rats; test: Acute EAE induced with basic myelin protein; format: in vivo, rat; details: 7 to 14 days post-injection
[10] = test system: P2X7 receptors; test: P2X7 receptor levels in lumbar-sacral spinal cord of EAE animals (Western blot); format: in vivo, rat; details: EAE animals treated with o-ATP; untreated EAE reduced by half
[11] = test system: EAE in DA rats; test: Chronic-recurrent-remittent EAE model; format: in vivo, rat; details: o-ATP 2.5 mg/kg every 12 h, from maximum intensity of symptoms
Experimental: Later, the efficacy of o-ATP in improving the symptoms of EAE was evaluated in a chronic-recurrent-remittent model. For this, DA rats were immunised with syngeneic spinal cord, the appearance of severe neurological deficits being observed 7-9 days post-injection, and which reached their first peak around 11 days.

2′,3′-O-(4-benzoyl-4-benzoyl) [BzATP]
induction of input current by agonist [1]: induced similar responses | EC50 [1]: 520 µM | toxicity of purinergic agonists for oligodendrocytes [2]: toxicity similar to ATP | histological examination of optic nerve after agonist infusion [3]: tissue damage | entrance of Ca2+ into oligodendrocytes ([4]; Bz-ATP 0.01-1 mM): activates the entrance of Ca^2+ into oligodendrocytes in a dose dependent way

Nc1ncnc2c1ncn2[C@@H]1O[C@H](COP(=O)(O)OP(=O)(O)OP(O)(O)=S)[C@@H](O)[C@H]1O [ATP-γ-S]
toxicity of purinergic agonists for oligodendrocytes [2]: toxic | histological examination of optic nerve after agonist infusion [3]: tissue damage

Nc1ncnc2c1ncn2[C@@H]1O[C@H](COP(=O)(O)OP(=O)(O)OP(=O)(O)O)[C@@H](O)[C@H]1O [ATP]
increase in number of cells with nuclear condensation vs control nerves ([5]; ATP 100 μM for 3 h, isolated adult rat optic nerve): > 3 times | oligodendrocytes showing non-desensitising input current ([1]; ATP 1 mM, n=47): 77.3%±7.9 | EC50 [1]: 8770 µM | death of oligodendrocytes ([2]; ATP 0.01-1 mM, all concentrations tested): 15-27% | cytosol [Ca2+]i after agonist ([4]; ATP 10 μM, basal 250±65 nM): 1200 ± 468 nM

[Cu+2] [Cu^2+]
effect on ATP currents ([1]; Cu2+ 1 mM): reduces ATP currents

O=c1[nH]cnc2c1ncn2C1OC(COP(=O)(O)OP(=O)(O)OP(=O)(O)OP(=O)(O)OP(=O)(O)OCC2OC(n3cnc4c(=O)[nH]cnc43)C(O)C2O)C(O)C1O (centres unmarked) [Ip5I, pentapotassium salt of P^1,P^5-Diinosine-5-pentaphosphate]
IC50 [6]: 3 µM | IC50 [7]: 0.003 µM

O=C(Nc1cccc(C(=O)Nc2ccc(S(=O)(=O)O)c3cc(S(=O)(=O)O)cc(S(=O)(=O)O)c23)c1)Nc1cccc(C(=O)Nc2ccc(S(=O)(=O)O)c3cc(S(=O)(=O)O)cc(S(=O)(=O)O)c23)c1 [NF023, hexasodium salt of 8,8′-[carbonylbis[imino-3,1-phenylenecarbonylimino]bis-1,3,5-naphthalenetrisulfonic acid]]
IC50 [6]: 29 µM

O=C(Nc1ccc(C(=O)Nc2ccc(C(=O)Nc3ccc(S(=O)(=O)O)c4cc(S(=O)(=O)O)cc(S(=O)(=O)O)c34)cc2)cc1)Nc1ccc(C(=O)Nc2ccc(C(=O)Nc3ccc(S(=O)(=O)O)c4cc(S(=O)(=O)O)cc(S(=O)(=O)O)c34)cc2)cc1 [NF279]
IC50 [8]: > 30 µM | IC50 [7]: 0.02 µM

Cc1nc(N=Nc2ccc(S(=O)(=O)O)cc2S(=O)(=O)O)c(COP(=O)(O)O)c(C=O)c1O [PPADS, tetrasodium salt of pyridoxalphosphate-6-azophenyl-2′,4′-disulfonic acid]
effect on ATP-induced oligodendrocyte death in isolated optic nerve ([5]; PPADS 10 μM with ATP): prevents the death of the oligodendrocytes | effect on currents induced by ATP ([1]; PPADS 100 μM): completely blocked | effect on symptoms and course of acute EAE ([9]; PPADS 30 mg/kg two times per day): did not improve the symptoms or the course of the disease | effect on ATP-induced oligodendrocyte death ([2]; PPADS 50 μM): inhibited | effect on Ca2+ entrance induced by Bz-ATP ([4]; PPADS): blocked | effect on [Ca2+]i response to ATP ([4]; PPADS 50 μM, ATP 10 μM): repressed

Nc1ncnc2c1ncn2[C@@H](C=O)O[C@@H](C=O)COP(=O)(O)OP(=O)(O)OP(=O)(O)O [o-ATP, sodium salt of Adenosine 5-triphosphate, oxidised with periodate]
effect on ATP currents ([1]; o-ATP, concentration not given): partially blocks | levels of P2X7 receptors in lumbar-sacral spinal cord [10]: returned to those of the controls | effect on symptoms of acute EAE ([9]; o-ATP 1 and 5 mg/kg every 12 h): reduced or prevented the appearance of symptoms | effect on oligodendroglial death due to ATP ([2]; o-ATP (FIG. 4)): can be prevented | reduction of the increase in [Ca2+]i induced by Bz-ATP ([4]; o-ATP 1 mM): 63±8 | effect on symptoms of chronic-recurrent-remittent EAE [11]: reduced the symptoms and also eliminated those common to the chronic phase

CC(C)c1cccc(C(C)C)c1O [propofol]
effect on ATP currents ([1]; propofol 60 μM): does not alter these currents | promotion of the increase of [Ca2+]i generated by ATP ([4]; 0.1 mM ATP): 60%±22 | promotion of the increase of [Ca2+]i generated by ATP ([4]; 1 mM ATP): 77%±34

Nc1ncnc2c1ncn2[C@@H]1O[C@H](COP(=O)(O)CP(=O)(O)OP(=O)(O)O)[C@@H](O)[C@H]1O [α,β-Me-ATP, α,β-methylene-ATP]
induction of input current by agonist [1]: did not generate currents | toxicity of purinergic agonists for oligodendrocytes [2]: toxic
